Assay results taken from US7723063B2, “Methods for measuring levels of bioactive human hepcidin” (Intrinsic Lifesciences, priority 2004, dated 2010).
In brackets after ≈: the same amount, converted by molar mass. Ends that are not written are not given here. Peptide text beside a SMILES is read from it.

Assays:
[1] = Aggregation of bioactive hepcidin in phosphate buffered saline; assay type: physicochemical; details: pH 7.4
Text: Development of bass hepcidin enzyme/ligand conjugates for ELISA. We took advantage of the only available (N-terminal) primary amine group present in refolded bass hepcidin for conjugation to KLH using EDC (1-Ethyl-3-[3-Dimethylamino-propyl] carbodiimide HCl) and DSS (Disuccinimidyl suberate) chemistries. These approaches were very difficult to develop and apply to production of hepcidin conjugates due to hepcidin's inherent solubility issues in higher pH coupling buffers. […] We have encountered significant issues when trying to solubilize hepcidin at the higher concentrations (1-3 mg ml^−1) in standard coupling buffers desirable for production of high activity, soluble hepcidin-HRP conjugates for ELISA.

[2] = Serum hepcidin after IP injection of synthetic bass hepcidin, competitive ELISA; assay type: in vivo; details: HSB
Protocol: Competition ELISA Protocol. A high-binding 96-well microplate (Corning, Inc., Cat. No. 3590) was coated with 100 μl of a 1:5,000 dilution of affinity-purified rabbit anti-HSB hepcidin antibody (0.68 mg/ml) in carbonate-bicarbonate coating buffer pH 9.6 (Sigma-Aldrich Corp., Cat. No. C-3041). One well contained 100 μl carbonate-bicarbonate coating buffer and no antibody. The plate was covered and placed at 4°C. Following a suitable period of incubation at 4° C., the plate was washed with three, 300 μl volumes of PBS-T (PBS containing 0.05% TWEEN-20™). Next, the plate was blocked with 250 μl of a 2% (w/v) dry milk solution in PBS, covered, and incubated for one hour at RT, shaking at 150 rpm. Samples and standard curves were prepared in a separate 96-well plate. Serum, plasma, and urine samples were diluted with PBS diluted to be within the working range of the standard curve. An aliquot of biotinylated AEEAc-derivatized hepcidin (0.21 mg/ml diluted 1:2000) was added to each well to give a final biotinylated hepcidin concentration of 94.5 ng/ml. From each well of the sample/standard curve dilution plate, 100 μl was transferred to the antibody coated and blocked plate. The plate was covered and incubated at RT, shaking at 150 rpm, for 1 hour to allow competitive binding to occur. […] Absorbance at 450 nm was determined using a THERMOMAX™ microplate reader with SOFTMAX PRO™ software (Molecular Devices). Data were analyzed using a spreadsheet program. […]
The data from these studies is separated by double lines. […] The second data set is from a field study Production Tank 32, where HSB without apparent clinical disease ‘Clinically Healthy’ and “Infected/Moribund” HSB were sampled and their serum hepcidin levels determined (Rows 4-5). […] The fourth experiment is a clinical where the indicated quantities of synthetic, bioactive, bass hepcidin was injected IP and measured in their serum at the indicated timepoints (Rows 8-11). […]

Yersinia enterocolitica = assay: Microbicidal kinetics; assay type: cell-based
Protocol: Microbicidal Kinetics. An experiment was conducted to examine the microbicidal kinetics of bass hepcidin and to compare its killing activity to another bass antimicrobial peptide, moronecidin. Moronecidin is a 22 amino acid, linear, amphipathic α-helical peptide which was originally co-purified from the gill of HSB with hepcidin. […] We compared the killing kinetics of hepcidin and moronecidin against Y enterocolitica at 30 min intervals over a 3 h time period using 2× their MIC concentrations for this organism (44 and 10 μM; FIG. 12). The bactericidal activities of the peptides were assessed by plating cultures and counting CFUs after overnight incubation at 37° C.

spores of A. niger = assay: Germination and fungicidal assay; assay type: cell-based; details: 48 hr exposure, re-culture in fresh medium
Protocol: Germination and Fungicidal Assay. Spores of A. niger were harvested and resuspended in sterile water containing 0.05% TWEEN-80™, and the concentration adjusted to approximately 10^8 spores per ml. Spores were diluted in half-strength PDB containing 16 μM chloramphenicol to a final concentration of 10^5 spores per ml. Ninety μl of the suspension was placed in sterile flat-bottomed polystyrene 96-well plates with 10 μl of serial dilutions of peptide (440 μM, 220 μM, 110 μM, 55 μM), in water. Germination of spores was allowed to proceed for 2 days at 30° C. in the dark, after which hyphae density was measured by absorbance at 600 nm. After 2 days of incubation, the contents of wells showing no germination were centrifuged for 3 min at 5000 rpm, resuspended in 50 μl of fresh PDB media, and triplicate aliquots spotted onto PDB agar plates. Plates were placed at 30° C. for 3 days to monitor germination of hyphae. The absence of germination indicated fungicidal activity.
Fungicidal Activity. […] After 48 hr exposure to the respective peptides, spores were removed and cultured in fresh medium and examined 48 h later for growth.

S. iniae = system: S. iniae
Protocol: (§1) Antimicrobial Synergism Studies. Synergism between synthetic bass hepcidin and moronecidin was tested in checkerboard liquid growth inhibition assays. In brief, two-fold serial dilutions of each peptide were made in water, and 10 μl of the solution added to the bottom of the wells of a 96-well plate. Ninety μl of exponential phase bacterial cultures (OD600˜0.2) were freshly diluted in culture media to ˜2×10^5 CFU ml^−1 and added to peptide solutions. Controls consisted of wells with the appropriate volume and concentration of each peptide alone, or of water. Bacterial viability was assayed at 2 h by plating aliquots of the bacterial suspension for CFU enumeration. The bacterial suspensions were further incubated overnight at 37° C. and bacterial growth was monitored by optical density at 600 nm for determination of MIC. Synergistic activity was quantify as fractional inhibition concentration (FIC) index=([A]/MICA)+([B]/MICB), where MICA and MICB are the MICs of the peptides alone and [A] and [B] are the MICs of A and B when used together.
(§2) To test for synergism between the two antimicrobial peptides in vitro, we conducted liquid growth inhibition/killing experiments with a Gram-positive (S. iniae) and a Gram-negative bacterium (Y enterocolitica) using varying concentrations of the two synthetic peptides. The bacteria were cultured in the presence of synthetic bass hepcidin and moronecidin and plated after 2 h incubation at 37° C. for determination of CFU (FIG. 14).

HSB erythrocytes = assay: Hemolytic activity; assay type: cell-based, striped bass
Protocol: Hemolytic activity. Freshly packed striped bass erythrocytes (3 ml) isolated from young fingerlings (˜30 g) and adult fish (˜300 g) were washed with phosphate-buffered saline (PBS; pH 7.4) until the supernatant was colorless and resuspended in PBS (30 ml) supplemented with glucose (0.2%, w/v). Synthetic bass hepcidin (10 μl of 880-55 μM) was added to 90 μl of a 1% suspension of washed erythrocytes in microcentrifuge tubes. Triplicate samples were incubated for 30, 90, 180, and 240 min at 37° C. then centrifuged for 10 min at 3500 rpm. Supernatant from the erythrocyte suspension (70 μl) was placed in a microtiter plate and optical density at 405 nm determined. The percentage of hemolysis in hepcidin-treated erythrocytes was expressed relative to hemolysis obtained with a control erythrocyte suspension treated with 0.1% sodium dodecyl sulphate (SDS, 100% hemolysis).
Hemolytic Activity. The hemolytic activity of bass hepcidin was tested with erythrocytes from HSB. […] Greater than 98% of the bass erythrocytes exposed to 44 μM hepcidin for 3 h at 37° C. remained intact. This exposure corresponds to a time point when 96% of Y. enterocolitica exposed to 44 μM hepcidin have been killed (see FIG. 6, Panel A). After 4 h incubation with 44 μM hepcidin, more than 97% of the erythrocytes remained intact. No hemolysis was observed after 4 h at hepcidin concentrations of 11 μM and lower.

[3] = Direct binding to ferric iron by NMR
Text: Instead, hepcidin has shown to have the capability of exerting its effects on the innate immune response of teleosts through a combination of activities. The bass model employed in these studies provides a powerful approach to further elucidate hepcidin function(s), including it potential role in hypoferremia in teleosts.

Y. enterocolitica = system: Y. enterocolitica
Protocol: as §1, §2

In the case of `CSCC[C@@H]1NC(=O)[C@H](CC(N)=O)NC(=O)[C@@H]2CCCN2C(=O)[C@@H]2CSSC[C@@H]3NC(=O)[C@H](C(C)C)NC(=O)CNC(=O)[C@H](CSSC[C@@H]4NC(=O)[C@H](CSSC[C@H](NC(=O)[C@H](CC(N)=O)NC4=O)C(=O)N2)NC(=O)[C@H](Cc2ccccc2)NC(=O)[C@H](CCCNC(=N)N)NC(=O)[C@@H](NC(=O)CN)CSSC[C@@H](C(=O)N[C@@H](CCCNC(=N)N)C(=O)N[C@@H](Cc2ccccc2)C(=O)O)NC3=O)NC(=O)CNC(=O)[C@H](CO)NC1=O` [bass hepcidin] (HELM PEPTIDE1{G.C.R.F.C.C.N.C.C.P.N.M.S.G.C.G.V.C.C.R.F}$PEPTIDE1,PEPTIDE1,2:R3-19:R3|PEPTIDE1,PEPTIDE1,5:R3-8:R3|PEPTIDE1,PEPTIDE1,6:R3-15:R3|PEPTIDE1,PEPTIDE1,9:R3-18:R3$$$V2.0; N-terminus and C-terminus assumed), the “Concentration at which it readily aggregates” value [1] is reported as 0.05 µg/mL, the level at 3 h ([2]; 50 ug, 50 μg IP) is reported as 39.3 µg/mL and the level at 3 h ([2]; 300 ug, 300 μg IP) is reported as 204 µg/mL. For the same molecule, the level at 6 h ([2]; 2 × 300 μg IP (0 and 3 h), sampled 6 h) was 230 µg/mL, the “Time required for 90% reduction of CFU from the original inoculum” value (Yersinia enterocolitica; 44 μM) was “Two and half hours” and the “State of cultures at 30 min” value (Yersinia enterocolitica; 22 and 44 μM) was “actually growing”. For the same molecule, the MIC (Yersinia enterocolitica; Y. enterocolitica) was 22 µM (≈ 49.6 µg/mL), the Fungicidal concentration (spores of A. niger) was 44 µM and the “Antimicrobial activity against S. iniae” value (S. iniae; 2 h incubation, concentrations as high as 88 μM) was “no detectable antimicrobial activity”. For the same molecule, the Hemolytic activity (HSB erythrocytes; 5.5 μM, 30 min., 37° C.) was 0% of controls, the Hemolytic activity (HSB erythrocytes; 5.5 μM, 90 min.) was 0% of controls and the Hemolytic activity (HSB erythrocytes; 5.5 μM, 180 min.) was 0% of controls. The Hemolytic activity (HSB erythrocytes; 11 μM, 30 min.) was 0% of controls, the Hemolytic activity (HSB erythrocytes; 11 μM, 90 min.) was 0% of controls and the Hemolytic activity (HSB erythrocytes; 11 μM, 180 min.) was 0% of controls. For the same molecule, the Hemolytic activity (HSB erythrocytes; 22 μM, 30 min.) was 0% of controls, the Hemolytic activity (HSB erythrocytes; 22 μM, 90 min.) was 0% of controls and the Hemolytic activity (HSB erythrocytes; 22 μM, 180 min.) was 0.4 ± 0.15% of controls. For the same molecule, the Hemolytic activity (HSB erythrocytes; 22 μM, 240 min.) was 0.4 ± 0.4% of controls, the Hemolytic activity (HSB erythrocytes; 44 μM, 30 min.) was 0% of controls and the Hemolytic activity (HSB erythrocytes; 44 μM, 90 min.) was 0% of controls. The Erythrocytes remaining intact (HSB erythrocytes; 44 μM, 3 h, 37° C.) was “Greater than 98%”, the Hemolytic activity (HSB erythrocytes; 44 μM, 180 min.) was 1.4 ± 0.3% of controls and the Erythrocytes remaining intact (HSB erythrocytes; 44 μM, 4 h) was “more than 97%”. The Hemolytic activity (HSB erythrocytes; 44 μM, 240 min.) was 2.5 ± 1.2% of controls, the Hemolysis (HSB erythrocytes; 4 h, 11 μM and lower) was “No hemolysis” and the “Direct binding to ferric iron” value [3] was “no evidence”.
For “FFHHIFRGIVHVGKTIHKLVTG-NH2 (C-terminus assumed) [moronecidin, reference compound]”, the “Decrease in CFU” value (Yersinia enterocolitica; 10 μM (2× MIC), after 30 min) was 90%, the Fungicidal concentration (spores of A. niger) was 10 µM and the MIC (S. iniae) was 2.5 µM. It also gave an MIC (Y. enterocolitica) of 5 µM and an MIC (E. coli) of 5 µM.
